Data on 14 molecules can be found in article PMC10326263 (Acta Pharmaceutica Sinica. B, 2023).

Series [1] concerns HIV-1 mutant strain L100I. Description: microbe, parasite or virus in culture. It counts as cell-based. The conditions noted are these: Human immunodeficiency virus 1, MT4, read-out: EC50 L100I.
The test system of the next series is HIV-1 WT strain (IIIB). Nature of the series: Anti-HIV activity against WT HIV-1. The conditions noted are these: WT HIV-1 IIIB.
In series [2] the test system is HIV-1 mutant strain RES056 (K103N + Y181C). Nature of the series: microbe, parasite or virus in culture. It counts as cell-based. The conditions noted are these: Human immunodeficiency virus 1, MT4, read-out: EC50 RES056.
Series [3] is described as follows: Cytotoxicity in mock-infected MT-4 cells, MTT method. It counts as cell-based. To be noted: human, mock-infected MT-4 cells, CC50, mock-infected MT-4 cells. (Tetrazolium dyes change colour on reduction, which living cells bring about.)
For series [4], the system named is HIV-1 mutant strain Y181C. Nature of the series: microbe, parasite or virus in culture. It counts as cell-based. To be noted: Human immunodeficiency virus 1, MT4, read-out: EC50 Y181C.
The test system of series [5] is HIV-1 mutant strain E138K. Description: microbe, parasite or virus in culture. It counts as cell-based. The conditions noted are these: Human immunodeficiency virus 1, MT4, read-out: EC50 E138K.
Series [6] deals with HIV-1 mutant strain F227L + V106A. Description: microbe, parasite or virus in culture. The conditions noted are these: Human immunodeficiency virus 1, MT4, read-out: EC50 F227L + V106A. Format: cell-based.
Series [7] deals with HIV-1 mutant strain Y188L. Nature of the series: microbe, parasite or virus in culture. Format: cell-based. The conditions noted are these: Human immunodeficiency virus 1, MT4, read-out: EC50 Y188L.
The test system of series [8] is HIV-1 mutant strain K103N. Description: microbe, parasite or virus in culture. It counts as cell-based. The conditions noted are these: Human immunodeficiency virus 1, MT4, read-out: EC50 K103N.

With `Cc1cc(C)cc(S(=O)(=O)c2c(C(=O)NCCCNS(=O)(=O)c3cccnc3)[nH]c3ccc(Cl)cc23)c1` [R10L3, 5-Chloro-3-((3,5-dimethylphenyl)sulfonyl)-N-(3-(pyridine-3-sulfonamido)propyl)-1H-indole-2-carboxamide], the EC50 in [1] came out at 100 ± 32 nM; in series [2], 7770 ± 2320 nM; in series [4] it was 200 ± 18 nM; in series [5], 43 ± 5 nM; in series [6], 540 ± 270 nM; in series [7], 2320 ± 110 nM. Further, in [8], the EC50 came out at 200 ± 36 nM. The “SI IIIB (CC50/EC50 ratio)” value in the series with HIV-1 WT strain (IIIB) turned out to be 6950. In [3], this molecule registered a CC50 at 5 days of 55100 ± 8070 nM.
In the case of `Cc1cc(C)cc(S(=O)(=O)c2c(C(=O)NCCCNS(=O)(=O)c3ccc(C#N)cc3)[nH]c3ccc(Cl)cc23)c1` [R5L3, 5-Chloro-3-((3,5-dimethylphenyl)sulfonyl)-N-(3-((4-cyanophenyl)sulfonamido)propyl)-1H-indole-2-carboxamide], the 50% effective concentration (EC50) in series [1] stood at 330 ± 34 nM; in series [2], 4090 nM; in [4] it was 980 ± 51 nM; in series [5] it was 270 ± 17 nM; in series [6], 1220 ± 51 nM; in series [7], 3340 ± 17 nM. The 50% effective concentration (EC50) in series [8] came out at 920 ± 410 nM. Also, the “SI IIIB (CC50/EC50 ratio)” value with HIV-1 WT strain (IIIB) was found to be 732. The same molecule yielded a CC50 at 5 days in [3] of 22600 ± 890 nM.
For `Cc1cc(C)cc(S(=O)(=O)c2c(C(=O)NCCCCNS(=O)(=O)c3ccc(F)cc3)[nH]c3ccc(Cl)cc23)c1` [R4L4, 5-Chloro-3-((3,5-dimethylphenyl)sulfonyl)-N-(4-((4-fluorophenyl)sulfonamido)butyl)-1H-indole-2-carboxamide], the EC50 was 56 ± 36 nM in series [1]; above 211000 nM in series [2]; 200 ± 34 nM in series [4]; 63 ± 3 nM in series [5]; 290 ± 120 nM in series [6]; 1270 ± 200 nM in series [7]. Besides, the EC50 in [8] was 190 ± 51 nM. Besides, in the series on HIV-1 WT strain (IIIB), the “SI IIIB (CC50/EC50 ratio)” value is >10,593. The molecule also yielded a half-maximal cytotoxic concentration (CC50) at 5 days in [3] above 211000 nM.
`Cc1ccnc2c1NC(=O)c1cccnc1N2C1CC1` [NVP, Nevirapine, reference compound]: the EC50 in series [1] was 1260 ± 600 nM; in series [2], above 9520 nM; in series [4] it was above 9520 nM; in series [5] it was 95 ± 31 nM; in series [6], above 9520 nM; in series [7] it was above 9520 nM. In addition, the concentration giving a half-maximal response (EC50) in series [8] is 5330 ± 1070 nM. Besides, the “SI IIIB (CC50/EC50 ratio)” value with HIV-1 WT strain (IIIB) is recorded as above 114. In addition, the 50% cytotoxic concentration (CC50) at 5 days in series [3] is above 15000 nM.
On to `Cc1cc(C)cc(S(=O)(=O)c2c(C(=O)NCCNS(=O)(=O)c3cccs3)[nH]c3ccc(Cl)cc23)c1` [R8L2, 5-Chloro-3-((3,5-dimethylphenyl)sulfonyl)-N-(2-(thiophene-2-sulfonamido)ethyl)-1H-indole-2-carboxamide], for which the concentration for a half-maximal effect (EC50) stood at 800 ± 94 nM in series [1]; 4630 ± 1540 nM in series [2]; 1000 ± 91 nM in series [4]; 1200 ± 18 nM in [5]; 1810 ± 180 nM in series [6]; 6240 ± 650 nM in series [7]. The 50% effective concentration (EC50) in series [8] is 1180 ± 91 nM. The “SI IIIB (CC50/EC50 ratio)” value in the series with HIV-1 WT strain (IIIB) is recorded as 1558. Also, half-maximal cytotoxicity in series [3] (CC50 at 5 days) was put at 161000 ± 50300 nM.
Turning to `Cc1cc(C)cc(S(=O)(=O)c2c(C(=O)NCCCCCNS(=O)(=O)c3ccc([N+](=O)[O-])cc3)[nH]c3ccc(Cl)cc23)c1` [R3L5, 5-Chloro-3-((3,5-dimethylphenyl)sulfonyl)-N-(5-((4-nitrophenyl)sulfonamido)pentyl)-1H-indole-2-carboxamide], the 50% effective concentration (EC50) in series [1] was found to be 130 ± 6.3 nM; in series [2], 25140 ± 47 nM; in [4], 300 nM; in [5], 250 ± 32 nM; in series [6], 540 ± 140 nM; in [7], 2470 ± 160 nM. Also, in series [8], the half-maximal effective concentration (EC50) came to 900 ± 79 nM. Further, the “SI IIIB (CC50/EC50 ratio)” value in the series on HIV-1 WT strain (IIIB) is above 7548. The molecule further had a CC50 at 5 days in series [3] above 198000 nM.
As for `Cc1cc(C)cc(S(=O)(=O)c2c(C(=O)NCCCCNS(=O)(=O)c3ccccc3)[nH]c3ccc(Cl)cc23)c1` [R9L4, 5-Chloro-3-((3,5-dimethylphenyl)sulfonyl)-N-(4-(phenylsulfonamido)butyl)-1H-indole-2-carboxamide], the EC50 in [1] was 28 ± 8.7 nM; in [2], above 115000 nM; in series [4], 150 ± 33 nM; in series [5], 31 ± 7 nM; in series [6], 280 ± 52 nM; in [7], 870 ± 170 nM. Moreover, the concentration giving a half-maximal response (EC50) in [8] was found to be 150 ± 45 nM. Besides, the “SI IIIB (CC50/EC50 ratio)” value in the series with HIV-1 WT strain (IIIB) was 15,106. Besides, the 50% cytotoxic concentration (CC50) at 5 days in [3] was 113000 ± 26800 nM.
With `Cc1cc(C)cc(S(=O)(=O)c2c(C(=O)NCCCCNS(=O)(=O)c3ccccc3F)[nH]c3ccc(Cl)cc23)c1` [R11L4, 5-Chloro-3-((3,5-dimethylphenyl)sulfonyl)-N-(4-((2-fluorophenyl)sulfonamido)butyl)-1H-indole-2-carboxamide], the concentration for a half-maximal effect (EC50) in series [1] was 63 ± 25 nM; in [2], above 190000 nM; in [4], 200 ± 17 nM; in [5] it was 36 ± 5 nM; in [6], 290 ± 34 nM; in [7] it was 1740 ± 320 nM. Further, in series [8], the concentration giving a half-maximal response (EC50) came out at 170 ± 17 nM. The “SI IIIB (CC50/EC50 ratio)” value with HIV-1 WT strain (IIIB) is 20,621. The same molecule yielded a CC50 at 5 days in series [3] of 189500 ± 1320 nM.
Regarding `Cc1cc(C)cc(S(=O)(=O)c2c(C(=O)NCCCCCNS(=O)(=O)c3cccs3)[nH]c3ccc(Cl)cc23)c1` [R8L5, 5-Chloro-3-((3,5-dimethylphenyl)sulfonyl)-N-(5-(thiophene-2-sulfonamido)pentyl)-1H-indole-2-carboxamide], the 50% effective concentration (EC50) is 170 ± 17 nM in series [1]; above 43300 nM in [2]; 730 ± 340 nM in series [4]; 200 ± 51 nM in series [5]; 1260 ± 340 nM in [6]; 2710 ± 130 nM in [7]. Besides, the concentration giving a half-maximal response (EC50) in series [8] was 1230 ± 220 nM. Moreover, in the series with HIV-1 WT strain (IIIB), the “SI IIIB (CC50/EC50 ratio)” value amounted to 526. In [3], this molecule registered a CC50 at 5 days of 35400 ± 1050 nM.
In the case of `Cc1cc(C)cc(S(=O)(=O)c2c(C(=O)NCCNS(=O)(=O)c3cccc(F)c3)[nH]c3ccc(Cl)cc23)c1` [R12L2, 5-Chloro-3-((3,5-dimethylphenyl)sulfonyl)-N-(2-((3-fluorophenyl)sulfonamido)ethyl)-1H-indole-2-carboxamide], the EC50 in series [1] amounted to 460 ± 180 nM; in series [2], 4940 ± 1240 nM; in series [4], 550 ± 89 nM; in [5], 440 ± 110 nM; in series [6], 2260 ± 550 nM; in [7], 3300 ± 300 nM. Further, the concentration for a half-maximal effect (EC50) in series [8] was found to be 500 ± 89 nM. Moreover, the “SI IIIB (CC50/EC50 ratio)” value with HIV-1 WT strain (IIIB) came to 5151. For the same molecule, it took 187000 ± 4810 nM to reach half-maximal cytotoxicity in series [3] (CC50 at 5 days).
For `Cc1cc(C)cc(S(=O)(=O)c2c(C(=O)NCCCCNS(=O)(=O)c3ccc(Br)cc3)[nH]c3ccc(Cl)cc23)c1` [R6L4, 5-Chloro-3-((3,5-dimethylphenyl)sulfonyl)-N-(4-((4-bromophenyl)sulfonamido)butyl)-1H-indole-2-carboxamide], the concentration for a half-maximal effect (EC50) in series [1] is 320 ± 150 nM; in series [2], above 26900 nM; in series [4], 600 ± 31 nM; in [5], 780 ± 540 nM; in [6], 510 ± 92 nM; in series [7], 1000 ± 150 nM. Moreover, the EC50 in series [8] is 690 ± 110 nM. Further, the “SI IIIB (CC50/EC50 ratio)” value in the series with HIV-1 WT strain (IIIB) is recorded as 347. This molecule also showed a CC50 at 5 days in series [3] of 26900 ± 16900 nM.
As to `COc1ccc(S(=O)(=O)NCCCCNC(=O)c2[nH]c3ccc(Cl)cc3c2S(=O)(=O)c2cc(C)cc(C)c2)cc1` [R2L4, 5-Chloro-3-((3,5-dimethylphenyl)sulfonyl)-N-(4-((4-methoxyphenyl)sulfonamido)butyl)-1H-indole-2-carboxamide], the half-maximal effective concentration (EC50) in series [1] is 180 nM; in series [2], above 22500 nM; in series [4], 330 nM; in series [5], 250 ± 50 nM; in series [6], 280 ± 33 nM; in [7] it was 800 ± 83 nM. Moreover, the EC50 in series [8] came out at 330 ± 33 nM. Further, the “SI IIIB (CC50/EC50 ratio)” value in the series with HIV-1 WT strain (IIIB) is on record as 615. Half-maximal cytotoxicity in series [3] (CC50 at 5 days) was put at 22500 ± 9140 nM.
As for `Cc1cc(C)cc(S(=O)(=O)c2c(C(=O)NCCCNS(=O)(=O)c3cccs3)[nH]c3ccc(Cl)cc23)c1` [R8L3, 5-Chloro-3-((3,5-dimethylphenyl)sulfonyl)-N-(3-(thiophene-2-sulfonamido)propyl)-1H-indole-2-carboxamide], the EC50 in series [1] turned out to be 500 ± 140 nM; in series [2], 5380 ± 1290 nM; in [4] it was 1060 ± 18 nM; in [5], 280 ± 18 nM; in series [6] it was 1650 ± 270 nM; in series [7], 3540 ± 340 nM. Further, the concentration giving a half-maximal response (EC50) in [8] came to 1030 ± 190 nM. Moreover, the “SI IIIB (CC50/EC50 ratio)” value in the series on HIV-1 WT strain (IIIB) was determined as 2105. This molecule showed a CC50 at 5 days in [3] of 121000 ± 33400 nM.
Regarding `Cc1cc(C)cc(S(=O)(=O)c2c(C(=O)NCCCNS(=O)(=O)c3ccc([N+](=O)[O-])cc3)[nH]c3ccc(Cl)cc23)c1` [R3L3, 5-Chloro-3-((3,5-dimethylphenyl)sulfonyl)-N-(3-((4-nitrophenyl)sulfonamido)propyl)-1H-indole-2-carboxamide], the EC50 stood at 350 ± 17 nM in [1]; 4920 ± 1270 nM in series [2]; 1030 ± 50 nM in series [4]; 310 ± 50 nM in series [5]; 1770 ± 33 nM in [6]; 3290 ± 66 nM in series [7]. In [8], the half-maximal effective concentration (EC50) turned out to be 730 ± 120 nM. The “SI IIIB (CC50/EC50 ratio)” value with HIV-1 WT strain (IIIB) was determined as 464. The molecule also showed a cytotoxic concentration (CC50) at 5 days in series [3] of 23000 ± 600 nM.

As a reminder, the EC50 is the midpoint of the concentration-response curve. Broadly, the CC50 is the concentration giving 50% cytotoxicity. The low end stands for harm at low concentration, the high end for better tolerance by the cells.
